# How the values were obtained:
# [1] = Serum levels of phorate, its metabolites and PAM in the poisoned patient (LC-MS); format: in vivo, human; conditions: for change of serum level while HP was stopped: seventh-10th day, family rejected HP; for concentration at 1 day / concentration at 4 h / concentration at 3 day / concentration at 5 day / concentration at 7 day / concentration at 10 day / concentration at 12 day / concentration at 14 day / concentration at 16 day / concentration at 18 day: human, in vivo
# Protocol: LC-MS was used to detect atropine,PAM,phorate and its metabolites. Ultra-high-pressure liquid chromatography-tandem mass spectrometry on a Sciex Triple TOFTM 5600+ mass spectrometer was used for toxic metabolites terminology screening. Ultra-high-pressure liquid chromatography-tandem mass spectrometry on a Sciextriplequad5500 mass spectrometer was used to detect target analytes quantitatively. Liquid chromatographic separations were performed with a Kinetex C18 column (2.1*50 mm,2.6 μm) from Phenomenex (Torrance, California, United States).Data were processed using the Xcalibur software (version2.0.7) from ThermoFisher.
# cholinesterase [2] = conditions: ref Kovarova et al., 2013, cited from earlier work; for IC50: read-out: cholinesterase inhibition IC50; for times more toxic than phorate: relative to phorate, from IC50
# AChE = test system: AChE; design: method as in Moyer et al., 2018b; conditions: within 48 h; ref Moyer et al., 2018b; cited from earlier work
# [3] = 24 h after ingestion; cited from earlier work
# cholinesterase [4] = target: T1, cholinesterase (Homo sapiens, UniProt P06276); assay: Serum cholinesterase level of the patient during phorate poisoning; format: in vivo; conditions: for serum cholinesterase activity: patient
# T1 construct: from tissue; host or cells: serum of the patient
# T1 sequence (P06276 29-602): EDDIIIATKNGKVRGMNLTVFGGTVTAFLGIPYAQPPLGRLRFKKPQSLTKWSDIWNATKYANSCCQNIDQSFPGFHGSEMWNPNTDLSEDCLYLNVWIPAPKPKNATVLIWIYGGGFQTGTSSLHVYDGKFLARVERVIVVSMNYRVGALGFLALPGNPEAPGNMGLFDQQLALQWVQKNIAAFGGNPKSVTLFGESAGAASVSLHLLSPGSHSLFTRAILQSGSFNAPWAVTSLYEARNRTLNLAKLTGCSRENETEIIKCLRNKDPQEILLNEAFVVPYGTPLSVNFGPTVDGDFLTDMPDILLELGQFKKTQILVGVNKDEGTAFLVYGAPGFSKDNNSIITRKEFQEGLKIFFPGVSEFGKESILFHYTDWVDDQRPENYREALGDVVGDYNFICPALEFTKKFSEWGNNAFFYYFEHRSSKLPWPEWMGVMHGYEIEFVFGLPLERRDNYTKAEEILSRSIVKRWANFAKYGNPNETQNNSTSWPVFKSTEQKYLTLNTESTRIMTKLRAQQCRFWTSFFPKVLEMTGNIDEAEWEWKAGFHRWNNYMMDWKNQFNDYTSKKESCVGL
# Protocol: Cholinesterase levels were measured using petrochemistry products, Ortho Medical Equipment Trade (China) Co., Ltd. slides, and the Medical Device of the PRC Registration Certificate NO.: 20212402803. Dry tablets (rate method) and compound calibrator for cholinesterase were determined by cholinesterase on a vitros5600 automatic biochemical immunoanalyzer (VITROS Chemistry Products, Calibrator kit 6). The reportable range of measurement was 200–12,500 U/L.
# [5] = liposolubility; cited from earlier work
# [6] = patient, day 1, before HP, about 4 h after ingestion of 60% phorate emulsion
Compound,change of serum level while HP was stopped [1],IC50 (cholinesterase [2]) [µM],times more toxic than phorate (cholinesterase [2]),"concentration at 1 day ([1]; patient, day 1, after HP) [ng/mL]","concentration at 4 h [1, 6] [ng/mL]","concentration at 3 day ([1]; patient, day 3) [ng/mL]","concentration at 5 day ([1]; patient, day 5) [ng/mL]","concentration at 7 day ([1]; patient, day 7 (HP suspended)) [ng/mL]","concentration at 10 day ([1]; patient, day 10 (HP suspended)) [ng/mL]","concentration at 12 day ([1]; patient, day 12) [ng/mL]","concentration at 14 day ([1]; patient, day 14) [ng/mL]","concentration at 16 day ([1]; patient, day 16) [ng/mL]","concentration at 18 day ([1]; patient, day 18) [ng/mL]",also measured
CCOP(=O)(OCC)SC[S+]([O-])CC (stereo not shown) [phoratoxon sulfoxide],gradually fell,0.9,1000 times,,,,,,,,,,,"serum concentration ([1]; patient, day 1, after HP): 2180 ng/mL; serum concentration [1, 6]: 4170 ng/mL; serum concentration ([1]; patient, day 3): 696 ng/mL; serum concentration ([1]; patient, day 5): 304 ng/mL; serum concentration ([1]; patient, day 7 (HP suspended)): 219 ng/mL; serum concentration ([1]; patient, day 10 (HP suspended)): 177 ng/mL; serum concentration ([1]; patient, day 12): 96.2 ng/mL; serum concentration ([1]; patient, day 14): 72.3 ng/mL; serum concentration ([1]; patient, day 16): 14.5 ng/mL; serum concentration ([1]; patient, day 18): 0.743 ng/mL"
"CCOP(=S)(OCC)SCSCC [phorate, phosphorodithioic acid O, O-diethyl S-[(ethylthio)methyl] ester]",,3100,,,,,,,,,,,,"aging of AChE inhibited by phorate (AChE): no significant aging; phorate in blood ([1]; after the first HP treatment and subsequent daily HP treatments): not detected; unmetabolized phorate in first blood analysis ([1]; before HP, about 4 h after ingestion): did not detect; levels in the serum ([1]; patient, 34th day): < 10 ng/mL; unmetabolized phorate in blood [3]: no longer detectable; cholinesterase levels (cholinesterase [4]; 23rd day): 1,634 U/L; cholinesterase levels (cholinesterase [4]; 27th day): 3592 U/L; cholinesterase levels (cholinesterase [4]; 34th day): 4,821 U/L; serum cholinesterase, share of the normal value (cholinesterase [4]; after 30 days): about 50%; serum cholinesterase activity (cholinesterase [4]; day 1): 268 u/L; serum cholinesterase activity (cholinesterase [4]; day 3): 200 u/L; serum cholinesterase activity (cholinesterase [4]; day 7): 200 u/L; serum cholinesterase activity (cholinesterase [4]; day 14): 233 u/L; serum cholinesterase activity (cholinesterase [4]; day 28): 3621 u/L; serum cholinesterase (cholinesterase [4]; upon transfer into ICU, after first blood perfusion): 268 U/L; logP [5]: 3.71"
"C[n+]1ccccc1/C=N/O [PAM, pralidoxime chloride, reference compound]",,,,,,,,,,,,,,"concentration of PAM ([1]; sixth day, after 0.5 g per hour for 5 days): significantly increased"
CCOP(=O)(OCC)SCSCC [phoratoxon],gradually fell,3,1000 times,,,,,,,,,,,"serum concentration ([1]; patient, day 1, after HP): 161 ng/mL; serum concentration [1, 6]: 195 ng/mL; serum concentration ([1]; patient, day 3): 27.7 ng/mL; serum concentration ([1]; patient, day 5): 3.33 ng/mL; serum concentration ([1]; patient, day 7 (HP suspended)): 2.10 ng/mL; serum concentration ([1]; patient, day 10 (HP suspended)): 1.01 ng/mL; serum concentration ([1]; patient, day 12): 0.433 ng/mL; serum concentration ([1]; patient, day 14): 0.415 ng/mL; serum concentration ([1]; patient, day 16): 0 ng/mL; serum concentration ([1]; patient, day 18): 0 ng/mL"
CCOP(=O)(OCC)SCS(=O)(=O)CC [phoratoxon sulfone],gradually fell,0.5,1000 times,2110,3240,221,114,65.2,44.9,33.3,29.4,20.9,20.3,
CCOP(=S)(OCC)SC[S+]([O-])CC (stereo not shown) [phorate sulfoxide],significant rise,1500,,1020,1440,21.2,10.9,35.2,80.2,18.1,17.6,1.67,0,
CCOP(=S)(OCC)SCS(=O)(=O)CC [phorate sulfone],slight rise,40,about 80 times,1310,1920,191,68.9,30.7,31,14.8,18.2,10.8,2.71,
